In brackets after ≈: the same amount, converted by molar mass.

Test [1] concerns Escherichia coli 205. The test is described as follows: Antibiotic activity in vitro, agar dilution method in DST agar (MIC). It is filed as cell-based. The note with it: for MIC: Escherichia coli, 205. The text has this: (§1) A. Die antibiotische Aktivität der Testverbindungen in vitro wurde durch die Agarverdünnungsmethode nach Ericsson, H.M., und Sherris, S.C., 1971, Acta Path. Microb. Scand. Section B, Suppl. No. 217, Bd. 1-90, in DST Agar ermittelt. Die gefundenen, das Wachstum der Testorganismen noch hemmenden Minimalkonzentrationen (MIC = minimum inhibiting concentrations) werden in Mikrogramm pro Milliliter […] für die geprüften Verbindungen in der Tabelle 1 angegeben.

In test [2] the test system is Pseudomonas aeruginosa 799/61. Described as above. Type of test: cell-based. The note with it: for MIC: Pseudomonas aeruginosa, 799/61.
From the text: as §1

In test [3] the test system is Klebsiella pneumoniae 327. The description is as above. Type of test: cell-based. The note with it: for MIC: Klebsiella pneumoniae, 327.
From the text: as §1

Test [4] deals with Salmonella typhimurium 277. The description is as above. Type of test: cell-based. The note with it: for MIC: Salmonella enterica, TYPHIMURIUM
From the text: as §1

Test [5] concerns Proteus morganii 2359. The test is described as follows: Chemotherapeutic efficacy in vivo against systemic infection in mice (ED50). The note with it: s.c., female SPF MF2 mice; for ED50: Morganella morganii, 2359, sc. The text has this: (§2) B. Die chemotherapeutische Wirksamkeit in vivo gegen systemische Infektionen in weiblichen SPF, MF2 Mäusen wurde nach der Methode von Zak., 0., et al., 1979, Drugs Exptl. Clin. Res. 5, 45-59, ermittelt. Die gefundenen ED50-Werte in Milligramm Substanz pro Kilogramm Maus (mg/kg) für eine Anzahl von Mikroorganismen werden für die oral (p.o.) oder subcutan (s.c.) applizierten Testverbindungen in der Tabelle 2 angegeben.

The test system of test [6] is Staphylococcus anvens 10B. The description is as above. The note with it: female SPF MF2 mice; for ED50: Staphylococcus, 10B, sc.
From the text: as §2

The test system of test [7] is Escherichia coli 205. The test is described as above. The note with it: s.c., female SPF MF2 mice; for ED50: Escherichia coli, 205, sc.
From the text: as §2

With `NC(=O)c1cc[n+](CC2=C(C(=O)[O-])N3C(=O)C(NC(=O)C(NC(=O)OC[C@@H](N)C(=O)O)c4csc(N)n4)C3SC2)cc1` (stereo partly drawn) [Testverbindung 26, 3-(4-Carbamoylpyridiniomethyl)-7β-[(2R,S)-2-((2R)-2-amino-2-car-boxyäthoxycarbonylamino)-2-(2-aminothiazol-4-yl)-acetamido]-3-cephem-4-carboxylat], the “MIC Escherichia coli 205” value in test [1] is 0,1 µg/ml. Also, the “MIC Pseudomonas aeruginosa 799/61” value in test [2] was 0,5 µg/ml. Also, in test [3], the “MIC Klebsiella pneumoniae 327” value is 0,1 µg/ml. The “MIC Salmonella typhimurium 277” value in test [4] is 0,1 µg/ml. In addition, the “ED50 Proteus morganii 2359” value in test [5] is recorded as 70 mg/kg. Besides, in test [6] (s.c.), the “ED50 Staphylococcus anvens 10B” value is greater than 30 mg/kg. For the same compound, the “ED50 Escherichia coli 205” value in test [7] is recorded as 1 mg/kg.

As to `NC(=O)c1cc[n+](CC2=C(C(=O)[O-])N3C(=O)[C@@H](NC(=O)C(NC(=O)OC[C@@H](N)C(=O)O)c4csc(N)n4)[C@H]3SC2)cc1` (stereo partly drawn) [Testverbindung 26], the MIC is 0.2 µg/mL (≈ 0.322 µM) in test [1], 0.5 µg/mL (≈ 0.806 µM) in test [2], 0.5 µg/mL (≈ 0.806 µM) in test [3] and 0.2 µg/mL (≈ 0.322 µM) in test [4]. For the same compound, the ED50 is 10 mg/kg in test [5], 15 mg/kg in test [6] and 9 mg/kg in test [7].

As for `CO[C@@]1(NC(=O)CCCNC(=O)OC[C@@H](N)C(=O)O)C(=O)N2C(C(=O)O)=C(COC(C)=O)CS[C@@H]21` [Testverbindung 27], the MIC in test [1] is 1 µg/mL (≈ 1.93 µM); in test [2], 0.5 µg/mL (≈ 0.964 µM); in test [3], 1 µg/mL (≈ 1.93 µM); in test [4] it was 1 µg/mL (≈ 1.93 µM). Also, the ED50 was 8 mg/kg in test [5], greater than 30 mg/kg in test [6] and 14 mg/kg in test [7].

As for `CO[C@@]1(NC(=O)CCCNC(=O)OC[C@@H](N)C(=O)O)C(=O)N2C(C(=O)O)=C(CSc3nnnn3C)CS[C@@H]21` [Testverbindung 28], the minimum inhibitory concentration (MIC) in test [1] was found to be 1 µg/mL (≈ 1.74 µM); in test [2] it was 0.2 µg/mL (≈ 0.348 µM); in test [3], 0.5 µg/mL (≈ 0.87 µM); in test [4] it was 0.5 µg/mL (≈ 0.87 µM). The values for the 50% effective dose (ED50) in test [5], in test [6] and in test [7] were 5 mg/kg, greater than 30 mg/kg and 4 mg/kg, respectively.

Turning to `CC(=O)OCC1=C(C(=O)O)N2C(=O)[C@@H](NC(=O)CCCNC(=O)OC[C@@H](N)C(=O)O)[C@H]2SC1` [Testverbindung 29], the MIC in test [1] was 32 µg/mL (≈ 65.5 µM); in test [2], 1 µg/mL (≈ 2.05 µM); in test [3], 4 µg/mL (≈ 8.19 µM); in test [4] it was 2 µg/mL (≈ 4.09 µM). Besides, the results for the median effective dose (ED50) in test [5], in test [6] and in test [7] were 75 mg/kg, greater than 30 mg/kg and 7 mg/kg, respectively.

For the compound `Cn1nnnc1SCC1=C(C(=O)O)N2C(=O)[C@@H](NC(=O)CCCNC(=O)OC[C@@H](N)C(=O)O)[C@H]2SC1` [Testverbindung 30], the minimum inhibitory concentration (MIC) in test [1] is 2 µg/mL (≈ 3.67 µM); in test [2] it was 0.5 µg/mL (≈ 0.918 µM); in test [3], 0.5 µg/mL (≈ 0.918 µM); in test [4], 0.5 µg/mL (≈ 0.918 µM). The ED50 was 10 mg/kg in test [5], greater than 30 mg/kg in test [6] and 1.7 mg/kg in test [7].

For the origin of these results see EP0059683A2, “7-Acylamido-3-cephem-4-carboxylic acids, process for their preparation, pharmaceutical compositions containing them and their use” (CIBA-GEIGY AG, priority 1981, dated 1982).
